Measured values reported in patent publication US20140011799A1 (Bristol-Myers Squibb Company, priority 2012, published 2014).

Assays:
hepatic lipase (HL) = molecular target: T1, hepatic lipase (HL) (Homo sapiens, UniProt P11150); assay: Hepatic lipase (HL) enzymatic assay, fluorescent substrate A10070 in DMPG vesicles; type: biochemical; details: HL partially purified from conditioned media of COS cells; compound preincubated 30 min at 37° C; read-out: HL IC50
T1 construct: made in house; host or cells: COS cells (conditioned medium, partially purified)
T1 sequence (P11150 23-499): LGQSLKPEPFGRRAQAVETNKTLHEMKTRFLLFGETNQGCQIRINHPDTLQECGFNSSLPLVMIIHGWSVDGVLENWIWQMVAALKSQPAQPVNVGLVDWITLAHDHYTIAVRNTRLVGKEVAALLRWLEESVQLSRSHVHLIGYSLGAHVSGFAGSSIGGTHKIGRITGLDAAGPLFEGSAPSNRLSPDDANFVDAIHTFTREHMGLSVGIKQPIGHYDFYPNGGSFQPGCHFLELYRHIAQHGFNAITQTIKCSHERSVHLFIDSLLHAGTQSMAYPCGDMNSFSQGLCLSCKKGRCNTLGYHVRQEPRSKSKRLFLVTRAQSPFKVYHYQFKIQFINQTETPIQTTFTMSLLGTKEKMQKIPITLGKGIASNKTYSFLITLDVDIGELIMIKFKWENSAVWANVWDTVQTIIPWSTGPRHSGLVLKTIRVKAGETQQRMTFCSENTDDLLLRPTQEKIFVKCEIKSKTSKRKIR
Description: Endothelial lipase (EL) and hepatic lipase (HL) activities were measured using a fluorescent substrate, A10070, (Invitrogen, CA) doped into an artificial vesicle containing DMPG (Avanti Polar Lipids) as the excipient. Vesicles were prepared by combining 571 μL of 29 mM DMPG in a 1:1 mixture of MeOH and CHCl3 with 2000 μL of 1 mM A10070 in a 1:1 mixture of MeOH and CHCl3. The mixture was dried under nitrogen in multiple vials then resuspended in 20 mL total volume of 50 mM HEPES pH 8.0 buffer containing 50 mM NaCl and 0.2 mM EDTA. The sample was allowed to sit at room temperature for 15 min and then was sonicated 3×4 mins on ice with a Branson Sonicator using duty cycle 1. This preparation provides vesicles with a mole fraction of 0.11 for the FRET substrate.
The enzymatic assay was measured using 384-well white Optiplates. Each well contained 20 μL of assay buffer (50 mM HEPES pH 8.0, 50 mM NaCl and 1 mM CaCl2) and 0.25 μL of a DMSO solution containing a compound of interest. EL or HL (10 μL) was added and allowed to incubate with the compound for 30 min at 37° C. The source of EL was conditioned media obtained from HT-1080 cells that were transformed using RAGE technology (Athersys) to overexpress endogenous EL, and HL was partially purified from conditioned media obtained from COS cells overexpressing HL. The reaction was started by the addition of 10 μL of a 1:10 dilution of vesicles. The final total reaction volume was […]. The reaction rates were measured on a Gemini plate reader with an excitation wavelength of 490 nm and an emission wavelength of 530 nm. Readings were taken over a period of 60 minutes, and the slope between 300 and 900 secs of the readout was used to calculate the rate of the reaction.

Endothelial lipase (EL) = molecular target: T2, Endothelial lipase (EL) (Homo sapiens, UniProt Q9Y5X9); assay: Endothelial lipase (EL) enzymatic assay, fluorescent substrate A10070 in DMPG vesicles; type: biochemical; details: EL from conditioned media of HT-1080 cells; compound preincubated 30 min at 37° C; read-out: EL IC50
T2 construct: HT-1080 cells that were transformed using RAGE technology (Athersys) to overexpress endogenous EL; endogenous in cells; conditioned medium used
T2 sequence (Q9Y5X9 21-500): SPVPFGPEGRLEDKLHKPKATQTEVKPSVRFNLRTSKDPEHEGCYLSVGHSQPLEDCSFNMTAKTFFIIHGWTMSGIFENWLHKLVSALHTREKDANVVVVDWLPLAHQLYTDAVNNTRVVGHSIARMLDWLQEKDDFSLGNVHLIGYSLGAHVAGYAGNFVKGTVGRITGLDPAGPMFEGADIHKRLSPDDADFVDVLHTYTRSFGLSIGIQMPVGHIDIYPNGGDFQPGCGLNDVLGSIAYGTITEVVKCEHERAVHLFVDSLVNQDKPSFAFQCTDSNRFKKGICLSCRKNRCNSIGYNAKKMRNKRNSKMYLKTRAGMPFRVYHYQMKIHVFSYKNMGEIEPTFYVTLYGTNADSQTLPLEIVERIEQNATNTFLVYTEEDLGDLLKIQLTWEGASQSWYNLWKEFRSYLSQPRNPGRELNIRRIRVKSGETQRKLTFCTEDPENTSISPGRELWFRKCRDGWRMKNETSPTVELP
In short: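 Compounds were preincubated with enzyme for 30 min at 37° C before FRET-substrate vesicles (A10070 in DMPG, 0.11 mole fraction) were added. Reaction rates were obtained from the 300–900 sec slope of fluorescence at 490/530 nm.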

Compound | IC50 (hepatic lipase (HL)) | IC50 (Endothelial lipase (EL))
NS(=O)(=O)NCc1nnc(C(c2nc3ccc(-c4ccc(C(F)(F)F)cc4)cc3s2)S(=O)(=O)Cc2ccccc2)o1 (centres unmarked) [Example 128, N-((5-((benzylsulfonyl)(6-(4-(trifluoromethyl)phenyl)-1,3-benzothiazol-2-yl)methyl)-1,3,4-oxadiazol-2-yl)methyl) sulfamide] | < 10 nM | < 10 nM
NS(=O)(=O)NCc1nnc(C(c2nc3ccc(-c4cccc(Cl)c4)cc3s2)S(=O)(=O)Cc2ccccc2)o1 (centres unmarked) [Example 129, N-((5-((benzylsulfonyl)(6-(3-chlorophenyl)-1,3-benzothiazol-2-yl)methyl)-1,3,4-oxadiazol-2-yl)methyl) sulfamide] | < 10 nM | < 10 nM
CS(=O)(=O)C(c1nnc(CNS(N)(=O)=O)o1)c1nc2ccc(-c3ccc(C(=O)N4CCOCC4)cc3)cc2s1 (centres unmarked) [Example 130, N-((5-((methylsulfonyl)(6-(4-(4-morpholinylcarbonyl)phenyl)-1,3-benzothiazol-2-yl)methyl)-1,3,4-oxadiazol-2-yl)methyl)sulfamide] | 22 nM | < 10 nM
COc1cc(-c2ccc3nc(C(c4nnc(CNS(N)(=O)=O)o4)S(C)(=O)=O)sc3c2)ccn1 (centres unmarked) [Example 131, N-((5-((6-(2-methoxy-4-pyridinyl)-1,3-benzothiazol-2-yl)(methylsulfonyl)methyl)-1,3,4-oxadiazol-2-yl)methyl)sulfamide] | 102 nM | < 10 nM
CS(=O)(=O)C(c1nnc(CNS(N)(=O)=O)o1)c1nc2ccc(-c3cnn(CCN4CCOCC4)c3)cc2s1 (centres unmarked) [Example 132, N-((5-((methylsulfonyl)(6-(1-(2-(4-morpholinyl)ethyl)-1H-pyrazol-4-yl)-1,3-benzothiazol-2-yl)methyl)-1,3,4-oxadiazol-2-yl)methyl) sulfamide] | 22300 nM | 32 nM
CS(=O)(=O)C(c1nnc(CNS(N)(=O)=O)o1)c1nc2ccc(-c3ccc(O)nc3)cc2s1 (centres unmarked) [Example 133, N-((5-((methylsulfonyl)(6-(6-oxo-1,6-dihydro-3-pyridinyl)-1,3-benzothiazol-2-yl)methyl)-1,3,4-oxadiazol-2-yl)methyl) sulfamide] | 467 nM | 16 nM
NS(=O)(=O)NCc1nnc(C(c2nc3ccc(-c4ccc(C(=O)N5CCOCC5)cc4)cc3s2)S(=O)(=O)CCNC(=O)OCc2ccccc2)o1 (centres unmarked) [Example 134, benzyl {2-[({6-[4-(4-morpholinylcarbonyl)phenyl]-1,3-benzothiazol-2-yl}{5-[(sulfamoylamino)methyl]-1,3,4-oxadiazol-2-yl}methyl)sulfonyl]ethyl} carbamate] | 307 nM | 20 nM
CC1(CS(=O)(=O)C(c2nnc(CNS(N)(=O)=O)o2)c2nc3ccc(-c4ccc(C(=O)N5CCOCC5)cc4)cc3s2)COC1 (centres unmarked) [Example 135, N-((5-((((3-methyl-3-oxetanyl)methyl)sulfonyl)(6-(4-(4-morpholinylcarbonyl)phenyl)-1,3-benzothiazol-2-yl)methyl)-1,3,4-oxadiazol-2-yl)methyl)sulfamide] | 91 nM | < 10 nM
CC(C)Cn1cc(-c2ccc3nc(C(c4nnc(CNS(N)(=O)=O)o4)S(=O)(=O)Cc4ccccc4)sc3c2)cn1 (centres unmarked) [Example 136, N-((5-((benzylsulfonyl)(6-(1-isobutyl-1H-pyrazol-4-yl)-1,3-benzothiazol-2-yl)methyl)-1,3,4-oxadiazol-2-yl)methyl)sulfamide] | < 10 nM | < 10 nM
COc1cc(-c2ccc3nc(C(c4nnc(CNS(N)(=O)=O)o4)S(=O)(=O)Cc4ccccc4)sc3c2)ccn1 (centres unmarked) [Example 137, N-((5-((benzylsulfonyl)(6-(2-methoxy-4-pyridinyl)-1,3-benzothiazol-2-yl)methyl)-1,3,4-oxadiazol-2-yl)methyl) sulfamide] | < 10 nM | < 10 nM
